Values of other authors as cited in patent US20230175054A1, “LASH METHODS FOR SINGLE MOLECULE SEQUENCING & TARGET NUCLEIC ACID DETECTION” (SARMAL, INC., priority 2020, published 2023).

How the values were obtained:
Apoaequorin = target: T1, Apoaequorin (Aequorea victoria, UniProt P02592); conditions: for λem (nm): luminescence emission with Apoaequorin; for Half-rise time / Relative intensity / Relative luminescence capacity: with Apoaequorin
T1 sequence (P02592 8-196): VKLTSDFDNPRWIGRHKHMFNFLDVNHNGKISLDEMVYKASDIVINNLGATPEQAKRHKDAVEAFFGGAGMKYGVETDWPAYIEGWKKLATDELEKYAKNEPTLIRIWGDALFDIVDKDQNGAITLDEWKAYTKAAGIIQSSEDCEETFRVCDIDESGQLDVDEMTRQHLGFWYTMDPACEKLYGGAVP

Renilla Luciferase = target: T2, Renilla Luciferase (Renilla reniformis, UniProt P27652); conditions: for λem (nm): luminescence emission with Renilla Luciferase; for Initial Intensity (%) / Total Light (%): with Renilla Luciferase
T2 sequence (P27652 1-311): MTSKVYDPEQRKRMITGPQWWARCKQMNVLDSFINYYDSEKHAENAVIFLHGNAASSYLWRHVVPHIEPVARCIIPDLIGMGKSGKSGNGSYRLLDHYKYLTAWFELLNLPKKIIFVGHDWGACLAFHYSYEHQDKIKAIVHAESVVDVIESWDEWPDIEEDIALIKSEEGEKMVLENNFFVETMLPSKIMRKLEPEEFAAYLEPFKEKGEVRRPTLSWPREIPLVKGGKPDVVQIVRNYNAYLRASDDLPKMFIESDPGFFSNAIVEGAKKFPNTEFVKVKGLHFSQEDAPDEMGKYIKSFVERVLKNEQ

| Molecule | λem (nm) (Apoaequorin) | Half-rise time (Apoaequorin) [s] | Relative intensity (Apoaequorin) | Relative luminescence capacity (Apoaequorin) | λem (nm) (Renilla Luciferase) | Initial Intensity (%) (Renilla Luciferase) | Total Light (%) (Renilla Luciferase) |
| --- | --- | --- | --- | --- | --- | --- | --- |
| Oc1ccc(Cc2nc3c(CC4CCCC4)nc(-c4ccc(O)cc4)cn3c2O)cc1 [Cp, Coelenterazine cp] | 442 | 0.15 to 0.3 | 15 | 0.95 | 470 | 135 | 23 |
| Oc1ccc(Cc2nc3c(Cc4ccccc4)nc(-c4ccc(O)cc4)cn3c2O)cc1 [Native, Coelenterazine] | 465 | 0.4 to 0.8 | 1.00 | 1.0 | – | – | – |
| Oc1ccc(-c2cn3c(O)c(Cc4ccc(F)cc4)nc3c(CC3CCCC3)n2)cc1 [fcp, Coelenterazine fcp] | 452 | 0.4 to 0.8 | 135 | 0.57 | – | – | – |
| Oc1ccc(-c2cn3c(O)c(Cc4ccccc4)nc3c(CC3CCCC3)n2)cc1 [hcp, Coelenterazine hcp] | 444 | – | 190 | 0.67 | – | – | – |
| O=c1c(Cc2ccc(I)cc2)nc2c(Cc3ccccc3)[nH]c(-c3ccc(O)cc3)cn1-2 [i, Coelenterazine i] | 476 | 8 | 0.03 | 0.70 | – | – | – |
| Coelenterazine f | 473 | 0.4 to 0.8 | 18 | 0.80 | 473 | 45 | 28 |
| Coelenterazine h | 475 | 0.4 to 0.8 | 10 | 0.82 | – | – | – |
| Coelenterazine ip | 441 | 1 | 47 | 0.54 | – | – | – |
| Coelenterazine n | 467 | 5 | 0.01 | 0.26 | – | – | – |
